These are literature values, as cited in patent US10398709B2, “Compositions for the treatment of cataracts” (Catacore, Inc., priority 2015, dated 2019).

Series [1] has as its system preformed protein aggregates (mutant crystallins). Conditions: both in vitro and in cell-transfection experiments.
A further series has as its system cataract. To be noted: in vivo in dogs.
Series [2] concerns dissected rabbit cataractous lenses. Conditions: dissected rabbit cataractous lenses in vitro.

On to `CC(C)CCC[C@@H](C)[C@H]1CC[C@H]2[C@@H]3CC=C4C[C@@H](O)CC[C@]4(C)[C@H]3CC[C@]12C` [cholesterol], for which the preformed protein aggregates result in series [1] is reported as “not”.

For the compound `CC(C)=CCC[C@@H](C)[C@H]1CC[C@@]2(C)C3=C(CC[C@]12C)[C@@]1(C)CC[C@H](O)C(C)(C)[C@@H]1CC3` [lanosterol, 3β-hydroxy-8,24-lanostadiene], the cataract severity entry in the series on cataract is on record as “reduce cataract severity”. In addition, in series [1], the preformed protein aggregates entry is “significantly decreased”. Moreover, the “cataract severity and transparency” value in series [2] is “reduce cataract severity and increase transparency”.
